Test results published in patent publication US10173999B2, “Cyclic amine derivative and pharmaceutical use thereof” (Toray Industries, Inc., priority 2015, dated 2019).
Entries after “also recorded” stand apart in the source; their conditions may differ. Counter-ions that a name gives are not always drawn.

Legend:
[1] = Stability test in monkey liver microsomes; format: in vitro ADME; details: pH 7.4; monkey liver microsomes 0.5 mg/mL, test compound 2 μmol/L, 37° C., 0-30 min; read-out: Hepatic intrinsic clearance, Monkey
Description: (§1) Experiment was performed using the compound of Example 11, Comparative Example 1 or Comparative Example 6 as a test compound and human liver microsomes (from Xenotech), monkey liver microsomes (from Xenotech), dog liver microsomes (from Xenotech) or mouse liver microsomes (from Xenotech) as the liver microsomes.
(§2) The reagents to be used in the stability test in liver microsomes were prepared as follows. A D-glucose 6-phosphate disodium salt (hereinafter referred to as G6P) was dissolved with distilled water to prepare an aqueous solution of G6P (100 mmol/L). Glucose 6-phosphate dehydrogenase (1000 units) from Yeast (hereinafter referred to as G6PDH) was dissolved with distilled water (5 mL) to prepare an aqueous solution of G6PDH (200 units/mL). MgCl2 was dissolved with distilled water to prepare an aqueous solution of MgCl2 (100 mmol/L). […]
(§3) With respect to the chromatogram of each well obtained by LC/MS analysis or LC/MS/MS analysis, the test compound residual ratio (%) at each reaction time t (min) was calculated based on the peak area at the reaction time of 0 minute as 100%. […]

[2] = Stability test in human liver microsomes; format: in vitro ADME; details: pH 7.4; human liver microsomes 0.5 mg/mL, test compound 2 μmol/L, 37° C., 0-30 min; read-out: Hepatic intrinsic clearance, Human
Description: as §1, §2, §3

[3] = system: mouse partial sciatic nerve ligation model (neuropathic pain); experiment: Mouse partial sciatic nerve ligation model (Seltzer model), von Frey test; format: in vivo; details: Comparative Example 7: oral, 7 days after ligation, 1-3 h after dosing; 0.01-1 mg/kg (Comp Ex 1), 10 mg/kg (Comp Ex 3-6, pregabalin); vs ligation+distilled water; t-test corrected by Dunnett
[4] = system: human aortic smooth muscle cells (T/G HA-VSMG); experiment: Inducibility of cytoplasmic vacuolation in human aortic smooth muscle cells; format: cell-based; details: Concentration: 1.0 mmol/L
Description: As a test compound, the compound of Example 3, 9, 11, 12 or compounds of Comparative Examples 2 to 6 were used. Canine aortic smooth muscle cells (Canine Aortic Smooth Muscle Cells, supply source: Toyobo Co., Ltd.) or human aortic smooth muscle cells of (T/G HA-VSMG, supply source: ATCC) were treated with a test compound (1.0 or 1.2 mmol/L in concentration) for 24 hours or 2 weeks. The cells were stained with HE, immunohistochemically for LAMP-2 or toluidine blue, and thereafter the presence or absence of cytoplasmic vacuolation was determined by using an optical microscope.

Cr1: CD (SD) rats = experiment: Evaluation of safety in rat, two-week oral administration test; format: in vivo; details: oral
Description: As a test compound, the compound of Example 11 or Comparative Example 2 was used. The compound of Example 11 or Comparative Example 2 was administered orally to Cr1: CD (SD) rats (7 weeks old, female and male; from Charles River Laboratories, Inc.), for 2 weeks. Clinical observation, body weight measurement, food intake measurement, ophthalmologic examination (the compound of Example 11, alone), hematological examination, blood chemistry examination, urinalysis, bone marrow examination, pathological anatomical examination, organ weight measurement, histopathological examination and immunotoxicity test were carried out. In addition, toxicokinetics (TK) measurement was carried out on Day 1 and Day 14 after administration. It was confirmed that each test compound was exposed. The administration dose of a test compound was specified as 0, 250, 500, 1000 mg/kg/day and administration volume was specified as 10 mL/kg. As an administration solvent, phosphate-buffered saline was used for the compound of Example 11 and distilled water was used for the compound of Comparative Example 2.

SMILES | microsomal CLint at 2 μmol/L [1] [µL/min/mg] | microsomal CLint at 2 μmol/L [2] [µL/min/mg] | analgesic action in von Frey test (total score) [3] | Inducibility of cytoplasmic vacuolation ([4]; Treatment time: 2 weeks) | Inducibility of cytoplasmic vacuolation ([4]; Treatment time: 24 hours) | no observed adverse effect level (Cr1: CD (SD) rats; 2 weeks) [mg/kg/day] | findings in examination items (Cr1: CD (SD) rats; up to 1000 mg/kg/day for 2 weeks)
CN(C)C1CCN(C(=O)CCc2nccn2C)CC1 [Comparative Example 1, 1-(4-(dimethylamino)piperidin-1-yl)-3-(1-methyl-1H-imidazol-2-yl)propan-1-one hydrochloride] | 2 | 1 | statistically significant analgesic action | – | – | – | –
CC(C)n1ccnc1CCC(=O)N1CCC(N(C)C)CC1 [Comparative Example 6, 1-(4-(dimethylamino)piperidin-1-yl)-3-(1-isopropyl-1H-imidazol-2-yl)propan-1-one hydrochloride] | 6 | – | statistically significant analgesic action | – | – | – | –
CN(C)C1CCN(C(=O)C[C@H](O)c2nccn2C)CC1 [Example 11, (S)-1-(4-(dimethylamino)piperidin-1-yl)-3-hydroxy-3-(1-methyl-1H-imidazol-2-yl)propan-1-one] | – | – | – | not observed; also recorded: Absent | Absent | ≥ 1000 | abnormality was not observed
